Measured values: patent publication US20100298141A1, “SUBSTITUTED PYRIDINE N-OXIDE HERBICIDES” (E. I. DU PONT DE NEMOURS AND COMPANY, priority 2007, published 2010)

Legend:
[1] = test system: bermudagrass; assay: Test C pre-/postemergence test; assay type: in vivo, Cynodon dactylon
Outline: (§1)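 Test chemicals were formulated with surfactant in a non-phytotoxic solvent and sprayed both on freshly planted seeds (preemergence) and on 1- to 4-leaf plants of 2–18 cm (postemergence). Flooded-paddy pots received compound directly into 3 cm of standing water, maintained for the test.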

[2] = test system: corn; assay: Test A pre-/postemergence greenhouse test; assay type: in vivo, Zea mays; conditions: for Plant response rating, Corn: 0 to 100 scale where 0 is no effect and 100 is complete control; for Corn plant response rating: 0 to 100 scale
Outline: (§2)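 Two application timings were run side by side in the greenhouse. Before emergence, compound went onto the soil surface of loam–sand pots as a directed spray; after emergence, plants at 2–10 cm and the one- to two-leaf stage were treated. Visual injury versus controls was rated at approximately day ten.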

[3] = test system: wheat; assay: Test A pre-/postemergence greenhouse test; assay type: in vivo, Triticum aestivum; conditions: for Plant response rating, Wheat: 0 to 100 scale where 0 is no effect and 100 is complete control; for Wheat plant response rating: 0 to 100 scale
Outline: as §2

[4] = test system: morningglory; assay: Test A pre-/postemergence greenhouse test; assay type: in vivo, Ipomoea spp.; conditions: for Plant response rating, Morningglory: 0 to 100 scale where 0 is no effect and 100 is complete control; for Morningglory plant response rating: 0 to 100 scale
Outline: as §2

[5] = test system: giant foxtail; assay: Test A pre-/postemergence greenhouse test; assay type: in vivo, Setaria faberi; conditions: for Plant response rating, Foxtail, Giant: 0 to 100 scale where 0 is no effect and 100 is complete control; for Foxtail, Giant plant response rating: 0 to 100 scale
Outline: as §2

[6] = test system: barnyardgrass; assay: Test C flooded paddy test; assay type: in vivo, Echinochloa crus-galli; conditions: Flood
Outline: (§3)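 Flooded 3 cm over soil; compound into paddy water; depth kept constant. Greenhouse 13–15 d.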

[7] = test system: Goosegrass; assay: Test C pre-/postemergence test; assay type: in vivo, Eleusin indica
Outline: as §1

[8] = test system: Italian ryegrass; assay: Test C pre-/postemergence test; assay type: in vivo, Lolium multiflorum
Outline: as §1

[9] = test system: soybean; assay: Test C pre-/postemergence test; assay type: in vivo, Glycine max
Outline: as §1

[10] = test system: crabgrass; assay: Test A pre-/postemergence greenhouse test; assay type: in vivo, Digitaria sanguinalis; conditions: for Plant response rating, Crabgrass, Large: 0 to 100 scale where 0 is no effect and 100 is complete control; for Crabgrass, Large plant response rating: 0 to 100 scale
Outline: as §2

[11] = test system: yellow nutsedge; assay: Test C pre-/postemergence test; assay type: in vivo, Cyperus esculentus
Outline: as §1

[12] = test system: common (oilseed) sunflower; assay: Test C pre-/postemergence test; assay type: in vivo, Helianthus annuus
Outline: as §1

[13] = test system: wheat; assay: Test C pre-/postemergence test; assay type: in vivo, Triticum aestivum
Outline: as §1

[14] = test system: umbrella sedge; assay: Test C flooded paddy test; assay type: in vivo, Cyperus difformis; conditions: Flood
Outline: as §3

[15] = test system: pigweed; assay: Test C pre-/postemergence test; assay type: in vivo, Amaranthus retroflexus
Outline: as §1

[16] = test system: morningglory; assay: Test C pre-/postemergence test; assay type: in vivo, Ipomoea coccinea
Outline: as §1

[17] = 125 g ai/ha, preemergence, scale 0 (no effect) to 100 (complete control)
[18] = Preemergence, 31 g ai/ha, scale 0 to 100 (0 no effect, 100 complete control)
[19] = preemergence, 250 g ai/ha, scale 0 (no effect) to 100 (complete control)
[20] = Postemergence, 500 g ai/ha, 0 is no effect, 100 is complete control
[21] = Preemergence, 125 g ai/ha, 0 no effect, 100 complete control
[22] = 62 g ai/ha, scale 0 to 100 (0 no effect, 100 complete control)
[23] = 250 g ai/ha, scale 0 to 100, 0 no effect, 100 complete control, 13 to 15 days
[24] = 62 g ai/ha, Preemergence, scale 0 to 100

Cn1nc(C(F)(F)F)c(CS(=O)(=O)c2ccc(Cl)c[n+]2[O-])c1OCC(F)(F)F [Compound 73]
Bermudagrass plant response rating ([1]; 62 g ai/ha, Preemergence, scale 0 to 100 (0 no effect, 100 complete control)): 100 | Bermudagrass plant response rating [1, 17]: 100 | Plant response rating, Bermudagrass [1, 18]: 80 | Bermudagrass plant response rating [1, 19]: 100 | Plant response rating, Corn ([2]; Postemergence, 125 g ai/ha): 0 | Corn plant response rating [2, 20]: 0 | Corn plant response rating [2, 21]: 0 | Plant response rating, Corn ([2]; Preemergence, 500 g ai/ha): 30 | Plant response rating, Wheat ([3]; Postemergence, 125 g ai/ha): 0 | Wheat plant response rating [3, 20]: 30 | Wheat plant response rating [3, 21]: 0 | Plant response rating, Wheat ([3]; Preemergence, 500 g ai/ha): 50 | Plant response rating, Morningglory ([4]; Postemergence, 125 g ai/ha): 0 | Morningglory plant response rating [4, 20]: 20 | Morningglory plant response rating [4, 21]: 20 | Plant response rating, Morningglory ([4]; Preemergence, 500 g ai/ha): 40 | Plant response rating, Foxtail, Giant ([5]; Postemergence, 125 g ai/ha): 70 | Foxtail, Giant plant response rating [5, 20]: 90 | Foxtail, Giant plant response rating [5, 21]: 90 | Plant response rating, Foxtail, Giant ([5]; Preemergence, 500 g ai/ha): 100 | Plant response rating, Barnyardgrass [6, 22]: 0 | Plant response rating, Barnyardgrass [6, 23]: 65 | Goosegrass plant response rating [7, 24]: 100 | Goosegrass plant response rating [7, 17]: 100 | Plant response rating, Goosegrass [7, 18]: 98 | Goosegrass plant response rating [7, 19]: 100 | Ryegrass, Italian plant response rating [8, 24]: 10 | Ryegrass, Italian plant response rating [8, 17]: 60 | Plant response rating, Ryegrass, Italian [8, 18]: 0 | Ryegrass, Italian plant response rating [8, 19]: 98 | Soybean plant response rating [9, 24]: 0 | Plant response rating, Soybean [9, 18]: 0 | Soybean plant response rating [9, 19]: 70 | Plant response rating, Crabgrass, Large ([10]; Postemergence, 125 g ai/ha): 60 | Crabgrass, Large plant response rating [10, 20]: 80 | Crabgrass, Large plant response rating [10, 21]: 70 | Plant response rating, Crabgrass, Large ([10]; Preemergence, 500 g ai/ha): 90 | Nutsedge, Yellow plant response rating [11, 24]: 0 | Nutsedge, Yellow plant response rating [11, 17]: 40 | Plant response rating, Nutsedge, Yellow [11, 18]: 0 | Nutsedge, Yellow plant response rating [11, 19]: 80 | Sunflower plant response rating [12, 24]: 0 | Sunflower plant response rating [12, 17]: 35 | Plant response rating, Sunflower [12, 18]: 0 | Sunflower plant response rating [12, 19]: 40 | Wheat plant response rating [13, 24]: 0 | Wheat plant response rating [13, 17]: 10 | Plant response rating, Wheat [13, 18]: 0 | Wheat plant response rating [13, 19]: 20 | Plant response rating, Sedge, Umbrella [14, 22]: 0 | Plant response rating, Sedge, Umbrella [14, 23]: 65 | Pigweed plant response rating [15, 24]: 100 | Pigweed plant response rating [15, 17]: 100 | Plant response rating, Pigweed [15, 18]: 90 | Pigweed plant response rating [15, 19]: 100 | Morningglory plant response rating [16, 24]: 0 | Morningglory plant response rating [16, 17]: 0 | Plant response rating, Morningglory [16, 18]: 0 | Morningglory plant response rating [16, 19]: 0
